Laboratory results published in PMC12434091, “Real-time monitoring with iTLR4 assay identifies ligand-dependent TLR4-TLR4 conformational dynamics” (Frontiers in Immunology, 2025).

Target: T1, Toll-like receptor 4 (TLR4) (Homo sapiens, UniProt O00206)
T1 construct: HA-TLR4-NLuc and HA-TLR4-Venus (C-terminal tags); with MD2 and CD14 (co-expressed; not required)
Test: BRET TLR4-TLR4 proximity assay (iTLR4) in transfected HEK293 cells
Assay type: cell-based

T1 sequence (O00206 24-839): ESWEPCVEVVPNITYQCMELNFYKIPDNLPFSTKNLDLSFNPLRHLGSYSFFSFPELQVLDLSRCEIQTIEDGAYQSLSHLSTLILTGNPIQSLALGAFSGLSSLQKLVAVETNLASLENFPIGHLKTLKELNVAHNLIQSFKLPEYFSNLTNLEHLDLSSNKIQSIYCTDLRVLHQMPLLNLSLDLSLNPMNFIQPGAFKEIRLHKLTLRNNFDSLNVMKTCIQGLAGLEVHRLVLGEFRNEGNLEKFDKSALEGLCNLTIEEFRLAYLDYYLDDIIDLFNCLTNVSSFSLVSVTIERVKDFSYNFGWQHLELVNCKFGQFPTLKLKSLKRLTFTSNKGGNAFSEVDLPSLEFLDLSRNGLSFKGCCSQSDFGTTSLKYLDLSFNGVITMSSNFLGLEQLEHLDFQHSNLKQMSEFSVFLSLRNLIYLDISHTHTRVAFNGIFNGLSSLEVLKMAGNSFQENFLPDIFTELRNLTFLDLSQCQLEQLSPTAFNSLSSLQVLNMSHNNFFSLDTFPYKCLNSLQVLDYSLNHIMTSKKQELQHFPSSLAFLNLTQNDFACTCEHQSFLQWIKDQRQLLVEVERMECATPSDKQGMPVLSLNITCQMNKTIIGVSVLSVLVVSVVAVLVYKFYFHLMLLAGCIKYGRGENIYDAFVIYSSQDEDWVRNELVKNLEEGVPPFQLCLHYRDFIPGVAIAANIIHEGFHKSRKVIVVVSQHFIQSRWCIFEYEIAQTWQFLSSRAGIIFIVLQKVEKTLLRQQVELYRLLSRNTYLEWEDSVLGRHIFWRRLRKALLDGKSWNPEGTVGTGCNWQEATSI
T1 sequence (Q9Y6Y9 19-160 partner): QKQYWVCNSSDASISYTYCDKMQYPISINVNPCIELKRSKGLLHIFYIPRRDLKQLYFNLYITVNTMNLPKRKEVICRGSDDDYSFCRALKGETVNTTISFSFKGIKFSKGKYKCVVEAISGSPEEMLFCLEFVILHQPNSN
T1 sequence (P08571 20-345 partner): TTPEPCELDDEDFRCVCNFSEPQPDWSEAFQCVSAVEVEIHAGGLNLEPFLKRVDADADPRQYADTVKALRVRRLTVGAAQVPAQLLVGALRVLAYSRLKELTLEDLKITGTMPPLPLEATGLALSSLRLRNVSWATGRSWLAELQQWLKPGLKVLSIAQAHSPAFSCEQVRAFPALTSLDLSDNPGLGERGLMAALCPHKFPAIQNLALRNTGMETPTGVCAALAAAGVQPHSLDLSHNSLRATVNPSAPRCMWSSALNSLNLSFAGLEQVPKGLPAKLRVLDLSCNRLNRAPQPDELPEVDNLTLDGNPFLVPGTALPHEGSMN

SMILES | EC50 [µM]
C=CCN1CC[C@@]23c4c5ccc(O)c4O[C@@H]2C(=O)CC[C@]3(O)[C@@H]1C5 [(+)-naloxone] | 4.2
C=CCN1CC[C@]23c4c5ccc(O)c4O[C@H]2C(=O)CC[C@@]3(O)[C@H]1C5 [(-)-naloxone] | 3
